Consider 22 molecules from patent US9376391B2, “Difluoromethyl-nicotinic-tetrahydronaphthyl carboxamides as fungicides” (BAYER CROPSCIENCE AKTIENGESELLSCHAFT, priority 2012, dated 2016).

Data set [1] can be described thus: log P by HPLC on reversed phase columns (EEC directive 79/831 Annex V.A8). Format: physicochemical. The settings on record: Table 1, formula (I), HPLC/LC-MS at pH 2.7, 0.1% formic acid in water / acetonitrile, gradient 10% to 95%.
In the next data set the test system is Alternaria brassicae. Kind of data set: In vivo preventive test on Alternaria brassicae (leaf spot on radish). Conditions: spray, graded 6 days after contamination vs control plants. The procedure:
In Vivo Preventive Test on Alternaria brassicae (Leaf Spot on Radish)
(§1) The active ingredients tested are prepared by homogenization in a mixture of acetone/tween/DMSO, and then diluted with water to obtain the desired active material concentration.
Radish plants (“Pernod Clair” variety), sown in starter cups on a 50/50 peat soil-pozzolana substrate and grown at 17° C., are treated at the cotyledon stage by spraying with the active ingredient prepared as described above. Plants, used as controls, are treated with the mixture of acetone/tween/DMSO/water not containing the active material.
After 24 hours, the plants are contaminated by spraying the cotyledons with an aqueous suspension of Alternaria brassicae spores (50 000 spores per ml). The spores are collected from a 15-day-old culture. The contaminated radish plants are incubated at 20° C. and at 100% relative humidity.
Grading (% of efficacy) is carried out 6 days after the contamination, in comparison with the control plants.

Another data set has as its system Puccinia recondita. Kind of data set: In vivo preventive test on Puccinia recondita (brown rust on wheat). The settings on record: wheat, spray, graded 12 days after contamination vs control plants. As to the method: In Vivo Preventive Test on Puccinia recondita (Brown Rust on Wheat) […] Wheat plants (“Scipion” variety), sown in starter cups on a 50/50 peat soil-pozzolana substrate and grown at 22° C., are treated at the 1-leaf stage (10 cm height) by spraying with the active ingredient prepared as described above. Plants, used as controls, are treated with the mixture of acetone/tween/DMSO/water not containing the active material. After 24 hours, the plants are contaminated by spraying the leaves with an aqueous suspension of Puccinia recondita spores (100 000 spores per ml). The spores are collected from an infected plant and are suspended in water containing 2.5 ml/1 of Tween 80 at 10%. The contaminated wheat plants are incubated for 24 hours at 20° C. and at 100% relative humidity, and then for 10 days at 20° C. and at 70-80% relative humidity. Grading (% of efficacy) is carried out 12 days after the contamination, in comparison with the control plants.

Another data set has as its system Septoria tritici. Nature of the data set: In vivo preventive test on Septoria tritici (leaf spot on wheat). The settings on record: preventive spray, wheat plants, grading 24 days after contamination. As to the method:
In Vivo Preventive Test on Septoria tritici (Leaf Spot on Wheat)
as §1
Wheat plants (“Scipion” variety), sown in starter cups on a 50/50 peat soil-pozzolana substrate and grown at 22° C., are treated at the 1-leaf stage (10 cm height) by spraying with the active ingredient prepared as described above. Plants, used as controls, are treated with the mixture of acetone/tween/DMSO/water not containing the active material.
After 24 hours, the plants are contaminated by spraying the leaves with an aqueous suspension of cryopreserved Septoria tritici spores (500 000 spores per ml). The contaminated wheat plants are incubated for 72 hours at 18° C. and at 100% relative humidity, and then for 21 days at 90% relative humidity.
Grading (% of efficacy) is carried out 24 days after the contamination, in comparison with the control plants.

In a further data set the test system is Sphaerotheca fuliginea. Kind of data set: In vivo preventive test on Sphaerotheca fuliginea (powdery mildew on cucurbits). Conditions: preventive spray, gherkin plants, grading 12 days after contamination. As to the method:
In Vivo Preventive Test on Sphaerotheca fuliginea (Powdery Mildew on Cucurbits)
(§2) The active ingredients tested are prepared by homogenization in a mixture of acetone/tween/DMSO and then diluted with water to obtain the desired active material concentration.
(§3) Gherkin plants (“Vert petit de Paris” variety), sown in starter cups on a 50/50 peat soil-pozzolana substrate and grown at 24° C., are treated at the Z11 cotyledon stage by spraying with the active ingredient prepared as described above. Plants, used as controls, are treated with the mixture of acetone/tween/DMSO/water not containing the active material.
After 24 hours, the plants are contaminated by spraying the cotyledons with an aqueous suspension of Sphaerotheca fuliginea spores (100 000 spores per ml). The spores are collected from infected plants. The contaminated gherkin plants are incubated at about 20° C. and at 70-80% relative humidity.
Grading (% of efficacy) is carried out 12 days after the contamination, in comparison with the control plants.

For another data set, the system named is Uromyces appendiculatus. Nature of the data set: In vivo preventive test on Uromyces appendiculatus (bean rust). Conditions: preventive spray, bean plants, grading 11 days after contamination. The procedure:
In Vivo Preventive Test on Uromyces appendiculatus (Bean Rust) […] Bean plants (“Saxa” variety), sown in starter cups on a 50/50 peat soil-pozzolana substrate and grown at 24° C., are treated at the 2-leaf stage (9 cm height) by spraying with the active ingredient prepared as described above. Plants, used as controls, are treated with the mixture of acetone/tween/DMSO/water not containing the active material. After 24 hours, the plants are contaminated by spraying the leaves with an aqueous suspension of Uromyces appendiculatus spores (150 000 spores per ml). The spores are collected from infected plants and are suspended in water containing 2.5 ml/1 of Tween 80 at 10%. The contaminated bean plants are incubated for 24 hours at 20° C. and at 100% relative humidity, and then for 10 days at 20° C. and at 70-80% relative humidity. Grading (% of efficacy) is carried out 11 days after the contamination, in comparison with the control plants.

The subject of another data set is Botrytis cinerea. Kind of data set: In vivo preventive test on Botrytis cinerea (grey mould), gherkin plants. Conditions: gherkin, spray, graded 4 to 5 days after contamination vs control plants. As to the method: In Vivo Preventive Test on Botrytis cinerea (Grey Mould)
as §2, §3
After 24 hours, the plants are contaminated by spraying the cotyledons with an aqueous suspension of cryopreserved Botrytis cinerea spores (50 000 spores per ml). The spores are suspended in a nutrient solution composed of 10 g/L of PDB, 50 g/L of D-Fructose, 2 g/L of NH4NO3 and 1 g/L of KH2PO4. The contaminated gherkin plants are incubated at 17° C. and at 90% relative humidity.
Grading (% of efficacy) is carried out 4 to 5 days after the contamination, in comparison with the control plants.

For the molecule `CCC1OC(C)(C)c2cccc(NC(=O)c3cccnc3C(F)F)c21` (racemic) [Example 77], in data set [1], the “logP^[a]” value was 2.39^[a]. Moreover, the Eff. % in the data set on Alternaria brassicae (dose 100 ppm) was 75%; with Puccinia recondita (dose 100 ppm), 98%; with Septoria tritici (100 ppm), 93%; in the data set on Sphaerotheca fuliginea (100 ppm) it was 98%; in the data set on Uromyces appendiculatus (100 ppm) it was 100%.

In the case of `CC1c2cccc(NC(=O)c3ccc(Cl)nc3C(F)F)c2CC1(C)C` (stereo not drawn) [Example 64], the “logP^[a]” value in data set [1] is 4.04^[a]. Also, the Eff. % was 98% in the data set with Puccinia recondita (dose 500 ppm), 94% in the data set on Sphaerotheca fuliginea (500 ppm) and 84% in the data set with Uromyces appendiculatus (500 ppm).

Take `CC1OC(C)(C)c2cccc(NC(=O)c3c(C(F)F)ccnc3C(F)F)c21` (stereo not drawn) [Example 40]: the “logP^[a]” value in data set [1] is 2.66^[a]. For the same molecule, the figures for the Eff. % in the data set on Puccinia recondita (dose 500 ppm), with Septoria tritici (500 ppm) and with Uromyces appendiculatus (500 ppm) were 81%, 71% and 100%, respectively.

For the molecule `CCC1Cc2c(NC(=O)c3cc(C)cnc3C(F)F)cccc2C1(C)C` (stereo not drawn) [Example 38, 2-(difluoromethyl)-N-(2-ethyl-1,1-dimethyl-2,3-dihydro-1H-inden-4-yl)-5-methylnicotinamide], the chromatographic logP (in general, lipophilicity estimated from chromatographic retention) in data set [1] (reversed phase HPLC columns) was 4.06. In addition, the Eff. % with Alternaria brassicae (dose 500 ppm) came to 80%; with Puccinia recondita (dose 500 ppm) it was 94%; in the data set with Uromyces appendiculatus (500 ppm), 100%.

With `CCC1CC(C)c2c(NC(=O)c3cccnc3C(F)F)cccc21` (stereo not drawn) [Example 88], in data set [1], the “logP^[a]” value is 3.37^[a]. Further, the Eff. % with Botrytis cinerea (dose 100 ppm) is on record as 89%; in the data set with Puccinia recondita (dose 100 ppm) it was 88%.

As for `CCCON=C1CCc2c(NC(=O)c3cccnc3C(F)F)cccc21` [Example 7], the “logP^[a]” value in data set [1] was 3.00^[a]. Besides, the Eff. % was found to be 79% with Alternaria brassicae (dose 500 ppm) and 71% in the data set with Uromyces appendiculatus (500 ppm).

Take `CCCCON=C1CCc2c(NC(=O)c3cccnc3C(F)F)cccc21` [Example 6]: the “logP^[a]” value in data set [1] is 3.44^[a]. In addition, the Eff. % in the data set with Alternaria brassicae (dose 500 ppm) came to 71%.

In the case of `CCC1(CC)CC(C)c2c(NC(=O)c3cc(C)cnc3C(F)F)cccc21` (racemic) [Example 79], the “logP^[a]” value in data set [1] is 4.31^[a]. Moreover, the figures for the Eff. % in the data set on Botrytis cinerea (dose 100 ppm) and in the data set with Puccinia recondita (dose 100 ppm) were 80% and 89%, respectively.

In the case of `CC1c2cccc(NC(=O)c3cccnc3C(F)F)c2CC1(C)C` (stereo not drawn) [Example 62], the “logP^[a]” value in data set [1] was 3.35^[a]. Moreover, the Eff. % in the data set with Alternaria brassicae (dose 500 ppm) is recorded as 100%; in the data set on Puccinia recondita (dose 500 ppm) it was 100%; with Septoria tritici (500 ppm), 100%; in the data set on Sphaerotheca fuliginea (500 ppm), 98%; with Uromyces appendiculatus (500 ppm) it was 100%.

Regarding `CC1CC(CC(C)(C)C)c2cccc(NC(=S)c3cccnc3C(F)F)c21` (stereo not drawn) [Example 59], the “logP^[a]” value in data set [1] is 4.87^[a]. Also, the Eff. % is reported as 88% in the data set with Alternaria brassicae (dose 500 ppm); 98% with Puccinia recondita (dose 500 ppm); 75% in the data set with Septoria tritici (500 ppm); 98% in the data set on Sphaerotheca fuliginea (500 ppm); 100% in the data set with Uromyces appendiculatus (500 ppm).

As to `CCC1(C)CC(C)c2c(NC(=O)c3cc(C)cnc3C(F)F)cccc21` (mixture of isomers) [Example 82], the “logP^[a]” value in data set [1] is 3.94^[a]. Besides, the Eff. % with Botrytis cinerea (dose 100 ppm) was 80%; in the data set with Puccinia recondita (dose 100 ppm), 94%; in the data set with Uromyces appendiculatus (100 ppm) it was 88%.

Turning to `O=C(Nc1cccc2c1CCC21CC1)c1cccnc1C(F)F` [Example 20], in data set [1], the “logP^[a]” value is 2.78^[a]. Besides, the Eff. % is recorded as 90% in the data set with Botrytis cinerea (dose 500 ppm), 94% with Puccinia recondita (dose 500 ppm) and 100% in the data set on Uromyces appendiculatus (500 ppm).

As to `CC1(C)Cc2cccc(NC(=O)c3cccnc3C(F)F)c2C1` [Example 49], in data set [1], the “logP^[a]” value is 3.06^[a]. The Eff. % in the data set on Alternaria brassicae (dose 500 ppm) is 89%; with Puccinia recondita (dose 500 ppm), 100%; in the data set on Septoria tritici (500 ppm), 86%; in the data set with Sphaerotheca fuliginea (500 ppm), 100%; with Uromyces appendiculatus (500 ppm) it was 100%.

For `Cc1ccc(NC(=O)c2cccnc2C(F)F)c2c1C(C)(C)CC2C` (stereo not drawn) [Example 11], the “logP^[a]” value in data set [1] is 3.41^[a]. Also, the Eff. % in the data set with Botrytis cinerea (dose 500 ppm) came to 99%; in the data set with Puccinia recondita (dose 500 ppm) it was 98%.

For `CON=C1CC(C)c2c(NC(=O)c3cccnc3C(F)F)cccc21` (racemic) [Example 30], the “logP^[a]” value in data set [1] was 2.32^[a]. In addition, the values for the Eff. % with Puccinia recondita (dose 500 ppm), in the data set with Septoria tritici (500 ppm) and in the data set on Uromyces appendiculatus (500 ppm) were 86%, 88% and 98%, respectively.

`CCC1(CC)c2cccc(NC(=O)c3cccnc3C(F)F)c2CC1C` (stereo not drawn) [Example 91]: in data set [1], the “logP^[a]” value was 3.99^[a]. In addition, the results for the Eff. % in the data set with Puccinia recondita (dose 100 ppm), in the data set with Sphaerotheca fuliginea (100 ppm) and in the data set on Uromyces appendiculatus (100 ppm) were 94%, 98% and 100%, respectively.

`CCC1(CC)Cc2c(NC(=O)c3cccnc3C(F)F)cccc2C1C` (racemic) [Example 60]: the “logP^[a]” value in data set [1] is 4.11^[a]. In addition, the Eff. % with Alternaria brassicae (dose 500 ppm) is on record as 100%; in the data set with Puccinia recondita (dose 500 ppm) it was 98%; with Septoria tritici (500 ppm), 100%; in the data set with Sphaerotheca fuliginea (500 ppm), 100%; in the data set on Uromyces appendiculatus (500 ppm), 100%.

On to `CC1(C)Cc2cccc(NC(=O)c3ccc(Cl)nc3C(F)F)c2C1` [Example 47], for which the “logP^[a]” value in data set [1] is 3.76^[a]. The Eff. % in the data set on Puccinia recondita (dose 500 ppm) is on record as 72%; in the data set with Septoria tritici (500 ppm), 71%.

On to `CC1OC(C)(C)c2c(Br)ccc(NC(=O)c3cccnc3C(F)F)c21` (stereo not drawn) [Example 15], for which, in data set [1], the “logP^[a]” value was 2.89^[a]. The figures for the Eff. % in the data set on Puccinia recondita (dose 500 ppm), with Septoria tritici (500 ppm) and in the data set with Uromyces appendiculatus (500 ppm) were 86%, 83% and 81%, respectively.

As to `Cc1cnc(C(F)F)c(C(=O)Nc2ccc(F)c3c2C(C)CC3(C)C)c1` (stereo not drawn) [Example 23], the “logP^[a]” value in data set [1] is 3.64^[a]. The Eff. % in the data set with Puccinia recondita (dose 500 ppm) came out at 94%; in the data set with Septoria tritici (500 ppm), 71%; with Sphaerotheca fuliginea (500 ppm), 94%; in the data set on Uromyces appendiculatus (500 ppm), 93%.

Regarding `CC(C)C1Cc2c(NC(=S)c3ccc(Cl)nc3C(F)F)cccc2C1(C)C` (stereo not drawn) [Example 66], the “logP^[a]” value in data set [1] is 5.11^[a]. In addition, the Eff. % is on record as 98% in the data set with Puccinia recondita (dose 100 ppm) and 85% with Uromyces appendiculatus (100 ppm).

`CON=C1c2cccc(NC(=O)c3cccnc3C(F)F)c2CC1(C)C` (mixture of isomers) [Example 34]: the Eff. % with Puccinia recondita (dose 500 ppm) is recorded as 93%; in the data set with Septoria tritici (500 ppm), 100%; in the data set on Sphaerotheca fuliginea (500 ppm), 100%.
